In patent publication US8871756B2 (Hoffmann-La Roche Inc., priority 2011, dated 2014):
Counter-ions that a name gives are not always drawn.

The compounds below were run on RSV Long strain (assay: Viral cytopathic effect (CPE) assay, anti-RSV activity). Settings: human respiratory syncytial virus, 144 h, RSV Long strain (ATCC); cell viability after 6 days, Cell Counting kit-8.
Type: cell-based, Respiratory Syncytial Virus
Procedure: Viral cytopathic effect (CPE) assay: To measure anti-RSV activity of compounds, 96-well plates are seeded with 6×10^3 cells per well in Dulbecco's modified Eagle's medium (DMEM) containing 10% fetal bovine serum (FBS). Cells are infected the next day with sufficient RSV Long strain (ATCC) to produce an approximately 80-90% cytopathic effect after 6 days, in the presence of serial half-log diluted compound in a total volume of 200 μL per well. The viability of cells is assessed after 6 days using Cell Counting kit-8 (Dojindo Molecular Technologies). The absorbance at 450 nm and referenced at 630 nm is measured to determine 50% effective concentration (EC50).
The compounds of the present invention were tested for their anti-RSV activity, and the activation as described herein. The Examples were tested in the above assay and found to have EC50 of about 0.0001 μM to about 10 μM.

Compound | EC50
Cc1ccc2nc(N3CCS(=O)(=O)c4ccccc4C3)nc(NCC(O)CO)c2c1 (stereo not drawn) [Example 87-1, 3-{[2-(1,1-Dioxido-2,3-dihydro-1,4-benzothiazepin-4(5H)-yl)-6-methylquinazolin-4-yl]amino}propane-1,2-diol] | 0.096 µM
Cc1ccc2nc(N3CCS(=O)(=O)c4ccccc4C3)cc(N3CCC(C(N)=O)C3)c2c1 (stereo not drawn) [Example 79, 1-[2-(1,1-Dioxido-2,3-dihydro-1,4-benzothiazepin-4(5H)-yl)-6-methylquinolin-4-yl]pyrrolidine-3-carboxamide] | 2.79 µM
Cc1ccc2nc(N3CCC(=O)c4ccccc4C3)nc(NCC3(N)COC3)c2c1 [Example 114-1, 2-(4-{[(3-Aminooxetan-3-yl)methyl]amino}-6-methylquinazolin-2-yl)-1,2,3,4-tetrahydro-5H-2-benzazepin-5-one] | 0.007 µM
Cc1ccc2nc(N3CC[S+]([O-])c4ccccc4C3)nc(NCCN)c2c1 (stereo not drawn) [Example 89, N-[6-Methyl-2-(1-oxido-2,3-dihydro-1,4-benzothiazepin-4(5H)-yl)quinazolin-4-yl]ethane-1,2-diamine] | 0.007 µM
Cc1ccc2nc(N3CCS(=O)(=O)c4ccccc4C3)cc(NC(=O)c3ccccn3)c2c1 [Example 48, N-[2-(1,1-Dioxido-2,3-dihydro-1,4-benzothiazepin-4(5H)-yl)-6-methylquinolin-4-yl]pyridine-2-carboxamide] | 0.009 µM
CC(O)c1ccc2nc(N3CCS(=O)(=O)c4ccccc4C3)cc(NCCCN)c2c1 (stereo not drawn) [Example 82, 1-{4-[(3-Aminopropyl)amino]-2-(1,1-dioxido-2,3-dihydro-1,4-benzothiazepin-4(5H)-yl)quinolin-6-yl}ethanol] | 0.014 µM
Cc1ccc2nc(N3CCS(=O)(=O)c4ccccc4C3)cc(NC3CCCC(N)C3)c2c1 (stereo not drawn) [Example 3-16, N-[2-(1,1-Dioxido-2,3-dihydro-1,4-benzothiazepin-4(5H)-yl)-6-methylquinolin-4-yl]-cyclohexane-1,3-diamine] | 0.075 µM
Cc1ccc2nc(N3CCS(=O)(=O)c4ccccc4C3)cc(NC(=O)c3cnccn3)c2c1 [Example 47-8, N-[2-(1,1-Dioxido-2,3-dihydro-1,4-benzothiazepin-4(5H)-yl)-6-methylquinolin-4-yl]pyrazine-2-carboxamide] | 0.432 µM
Cc1ccc2nc(N3CCC(F)(F)c4ccccc4C3)cc(NCC3(CN)CS(=O)(=O)C3)c2c1 [Example 112-1, N-{[3-(Aminomethyl)-1,1-dioxidothietan-3-yl]methyl}-2-(5,5-difluoro-1,3,4,5-tetrahydro-2H-2-benzazepin-2-yl)-6-methylquinolin-4-amine] | 3.74 µM
Cc1ccc2nc(N3CCS(=O)(=O)c4ccccc4C3)nc(NCC3(N)CCC3)c2c1 [Example 61-2, N-[(1-Aminocyclobutyl)methyl]-2-(1,1-dioxido-2,3-dihydro-1,4-benzothiazepin-4(5H)-yl)-6-methylquinazolin-4-amine] | 0.097 µM
CNCCNc1cc(N2CCC(F)(F)c3ccccc3C2)nc2ccc(C)cc12 [Example 110-3, N-[2-(5,5-Difluoro-1,3,4,5-tetrahydro-2H-2-benzazepin-2-yl)-6-methylquinolin-4-yl]-N′-methylethane-1,2-diamine] | 0.161 µM
Cc1ccc2nc(N3CCS(=O)(=O)c4ccccc4C3)cc(NS(C)(=O)=O)c2c1 [Example 47-7, N-[2-(1,1-Dioxido-2,3-dihydro-1,4-benzothiazepin-4(5H)-yl)-6-methylquinolin-4-yl]methanesulfonamide trifluoroacetate] | 3.41 µM
Cc1ccc2nc(N3CCS(=O)(=O)c4ccccc4C3)cc(NCCNCC(F)F)c2c1 [Example 5-11, N-(2,2-Difluoroethyl)-N′-[2-(1,1-dioxido-2,3-dihydro-1,4-benzothiazepin-4(5H)-yl)-6-methylquinolin-4-yl]ethane-1,2-diamine] | 0.526 µM
Cc1ccc2nc(N3CCS(=O)(=O)c4ccccc4C3)cc(NC[C@H]3COC(N)=N3)c2c1 [Example 38-4, N-{[(4S)-2-Amino-4,5-dihydro-1,3-oxazol-4-yl]methyl}-2-(1,1-dioxido-2,3-dihydro-1,4-benzothiazepin-4(5 H)-yl)-6-methylquinolin-4-amine] | 0.064 µM
Cc1ccc2nc(N3CCS(=O)(=O)c4ccccc4C3)cc(N3CCCC(N)C3)c2c1 (stereo not drawn) [Example 16-1, 1-[2-(1,1-Dioxido-2,3-dihydro-1,4-benzothiazepin-4(5H)-yl)-6-methylquinolin-4-yl]piperidin-3-amine] | 2.57 µM
Cc1ccc2nc(N3CCS(=O)(=O)c4ccccc4C3)cc(NC[C@@H]3COC(N)=N3)c2c1 [Example 38-3, N-{[(4R)-2-Amino-4,5-dihydro-1,3-oxazol-4-yl]methyl}-2-(1,1-dioxido-2,3-dihydro-1,4-benzothiazepin-4(5H)-yl)-6-methylquinolin-4-amine] | 0.074 µM
Cc1ccc2nc(N3CCS(=O)(=O)c4ccccc4C3)cc(NCCCCCCCCCO)c2c1 [Example 12-6, 9-{[2-(1,1-Dioxido-2,3-dihydro-1,4-benzothiazepin-4(5H)-yl)-6-methylquinolin-4-yl]amino}nonan-1-ol] | 9.21 µM

Compound | EC50
Cc1ccc2nc(N3CCS(=O)(=O)c4ccccc4C3)cc(S(=O)(=O)NCCN)c2c1 [Example 103, N-(2-Aminoethyl)-2-(1,1-dioxido-2,3-dihydro-1,4-benzothiazepin-4(5H)-yl)-6-methylquinoline-4-sulfonamide] | 0.202 µM
Cc1ccc2nc(N3CCS(=O)(=O)c4ccccc4C3)cc(NC[C@@H](O)CO)c2c1 [Example 3-11, (2R)-3-{[2-(1,1-Dioxido-2,3-dihydro-1,4-benzothiazepin-4(5H)-yl)-6-methylquinolin-4-yl]amino}propane-1,2-diol] | 0.054 µM
NC1(CNc2nc(N3CCS(=O)(=O)c4ccccc4C3)nc3ccccc23)COC1 [Example 57-3, N-[(3-Aminooxetan-3-yl)methyl]-2-(1,1-dioxido-2,3-dihydro-1,4-benzothiazepin-4(5H)-yl)quinazolin-4-amine] | 0.023 µM
Cc1ccc2nc(N3CCS(=O)(=O)c4ccccc4C3)cc(OC3CCNCC3)c2c1 [Example 98-2] | 3.16 µM
Cc1cc2c(NCCN)cc(N3CCS(=O)(=O)c4ccccc4C3)nc2c(F)c1F [Example 9-25, N-[2-(1,1-Dioxido-2,3-dihydro-1,4-benzothiazepin-4(5H)-yl)-7,8-difluoro-6-methylquinolin-4-yl]ethane-1,2-diamine] | 4.08 µM
Cc1ccc2nc(N3CCS(=O)(=O)c4ccccc4C3)cc(NCC(=O)O)c2c1 [Example 9-8, N-[2-(1,1-Dioxido-2,3-dihydro-1,4-benzothiazepin-4(5H)-yl)-6-methylquinolin-4-yl]glycine] | 3.48 µM
Cc1ccc2nc(N3CCS(=O)(=O)c4ccccc4C3)cc(NC3CNCC34COC4)c2c1 (stereo not drawn) [Example 2-6, 2-(1,1-Dioxido-2,3-dihydro-1,4-benzothiazepin-4(5H)-yl)-6-methyl-N-(2-oxa-6-azaspiro[3.4]oct-8-yl)quinolin-4-amine] | 0.021 µM
[2H]C([2H])([2H])c1ccc2nc(N3CCS(=O)(=O)c4ccccc4C3)cc(NCC3(CN)COC3)c2c1 [Example 3-65, N-{[3-(Aminomethyl)oxetan-3-yl]methyl}-2-(1,1-dioxido-2,3-dihydro-1,4-benzothiazepin-4(5H)-yl)-6-trideuteriomethylquinolin-4-amine] | 0.002 µM
Cc1ccc2nc(N3CCS(=O)(=O)c4c(F)cccc4C3)cc(NCC3(N)COC3)c2c1 [Example 1-4, N-[(3-Aminooxetan-3-yl)methyl]-2-(9-fluoro-1,1-dioxido-2,3-dihydro-1,4-benzothiazepin-4(5H)-yl)-6-methylquinolin-4-amine] | 0.004 µM
Clc1cc(N2CCCc3ccccc3C2)nc2ccccc12 [Example 118-26, 2-(4-Chloroquinolin-2-yl)-2,3,4,5-tetrahydro-1H-2-benzazepine] | 7.75 µM
Cc1ccc2nc(N3CCS(=O)(=O)c4ccccc4C3)cc(NCCN)c2c1F [Example 9-21, N-[2-(1,1-Dioxido-2,3-dihydro-1,4-benzothiazepin-4(5H)-yl)-5-fluoro-6-methylquinolin-4-yl]ethane-1,2-diamine] | 0.021 µM
NCCNc1cc(N2CC[S+]([O-])c3ccccc3C2)nc2ccc(Cl)cc12 (stereo not drawn) [Example 18-7, N-[6-Chloro-2-(1-oxido-2,3-dihydro-1,4-benzothiazepin-4(5H)-yl)quinolin-4-yl]ethane-1,2-diamine] | 0.023 µM
Cc1ccc2nc(N3CCS(=O)(=O)c4ccccc4C3)cc(NCC(C)(C)CN)c2c1 [Example 9-14, N-[2-(1,1-Dioxido-2,3-dihydro-1,4-benzothiazepin-4(5H)-yl)-6-methylquinolin-4-yl]-2,2-dimethylpropane-1,3-diamine] | 0.025 µM
Cc1ccc2nc(N3CCS(=O)(=O)c4ccccc4C3)cc(N3CC(N)CC3=O)c2c1 (stereo not drawn) [Example 73, 4-Amino-1-[2-(1,1-dioxido-2,3-dihydro-1,4-benzothiazepin-4(5H)-yl)-6-methylquinolin-4-yl]pyrrolidin-2-one] | 6.98 µM
Cc1ccc2nc(N3CCS(=O)(=O)c4ccccc4C3)cc(NC[C@@H](C)N)c2c1 [Example 5-9, (2R)—N˜1˜-[2-(1,1-Dioxido-2,3-dihydro-1,4-benzothiazepin-4(5H)-yl)-6-methylquinolin-4-yl]propane-1,2-diamine] | 0.018 µM
Cc1ccc2nc(N3CCS(=O)(=O)c4ccccc4C3)cc(NCC3CCNCC3)c2c1 [Example 3-29, 2-(1,1-Dioxido-2,3-dihydro-1,4-benzothiazepin-4(5H)-yl)-6-methyl-N-(piperidin-4-ylmethyl)quinolin-4-amine] | 0.022 µM
